Values quoted from earlier work in patent publication US5618841A, “Composition of iodophor teat dip for the prevention of mastitis and a process for using the same” (priority 1994, dated 1997).

How the values were obtained:
microorganism = details: rank order
[1] = first ionization constant
[2] = 25° C.

## O=C(O)CO [Glycolic acid]
microorganism
  relative antimicrobial strength, with respect to citric acid: Mandelic acid>Lactic acid>Glycolic acid>Malic acid>Citric acid

## CC(O)C(=O)O (stereo not drawn) [Lactic acid]
microorganism
  relative antimicrobial strength, with respect to citric acid: Mandelic acid>Lactic acid>Glycolic acid>Malic acid>Citric acid

## O=C(O)CC(O)C(=O)O (stereo not drawn) [Malic acid]
microorganism
  relative antimicrobial strength, with respect to citric acid: Mandelic acid>Lactic acid>Glycolic acid>Malic acid>Citric acid

## O=C(O)C(O)c1ccccc1 (stereo not drawn) [Mandelic acid]
microorganism
  relative antimicrobial strength, with respect to citric acid: Mandelic acid>Lactic acid>Glycolic acid>Malic acid>Citric acid
[1]
  pKa: 3.39

## II [elemental iodine]
[2]
  solubility in water: 0.03%
